The text below walks through data of US10287617B2, “Methods for in vitro—in vivo efficacy determination” (COLORADO STATE UNIVERSITY RESEARCH FOUNDATION, priority 2014, dated 2019).

Broadly, the IC50 is the point on the concentration scale where inhibition reaches its midpoint.

Data set [1] can be described thus: Oxidative metabolic lability in human liver microsomes. Particulars: for Liver Microsome Lability Human: 5 μM, 1 mg/mL microsomal protein, 20 min.
Description: (§3) Microsomal fractions were prepared in the Drug Disposition Domain at DSAR Montpellier (371 rue du Pr. J. Blayac, 34184 Montpellier Cedex 04, France). […] The flavin-containing monooxygenases (FMO)-dependent reactions were run in the presence of bovine serum albumin (BSA, 0.1%) for the duration of 0 and 20 min (with or without microsomal proteins and/or cofactors). […] Following protein precipitation with acetonitrile and their removal by centrifugation, supernatant fluids were analyzed by LC/MS-MS.
(§4) Thermo Finnigan TSQ Quantum Ultra instrument, ESI positive ion ionization mode. Each compound is studied in duplicates. Results are expressed in percentage of lability (or total metabolism). Total metabolism=[1−(UC_Peak Area+Cofactor at T20)/(UC_Peak Area Reference at T0)]×100
(§5) The reactions were prepared as described and were run in the presence of bovine scrum albumin (BSA, 0.1%) for the duration of 0 and 20 min (with or without microsomal proteins and/or cofactors). Enzyme activity was stopped, the protein was precipitated and removed by centrifugation. The supernatant fluids were analyzed by LC/MS-MS. […] A Thermo Finnigan TSQ Quantum Ultra instrument, ESI positive ion ionization mode was used for MS/MS. Each compound was studied in duplicates. Results are expressed in percentage of lability (or total metabolism) using the following formula: Total metabolism=[1−(UC_Peak Area+Cofactor at T20)/(UC_Peak Area Reference at T0)]×100 where UC=Unchanged Compound; “Reference” sample was NADPH for liver microsomal preparation.
Data set [2] deals with Mycobacteria tuberculosis. The data set can be described thus: MIC and drug response curve type (Tables A and B). Format: cell-based, Mycobacterium tuberculosis. Particulars: Table A; for Curve: drug response curve type; for MIC: in µg/mL. As for the experimental part: A drug concentration response curve can be generated by graphing the log10 drug concentrations (μg/mL) against the difference in growth between the drug-treated wells and control wells. See FIG. 3C, and FIG. 5 (entries for SB-P23D8 and SB-P26D9). A NREBA is indicative of bacteriostatic activity above the MIC.
(§1) Further analysis using the methods described herein was performed on the compounds found in Tables A and B (bold font compounds are shown in FIG. 11) resulting in the data found therein.
MIC values were determined for the benzimidazoles using a modified 96-well microplate Alamar Blue (resazurin) assay (MABA) (see Kumar et al., J. Med. Chem. 2011; 54:374-381; Collins and Franzblau, Antimicrob. Agents Chemother. 1997; 41:1004-1009). Dose response curves were generated from the MABA assay for compounds by graphing the log10 drug concentrations against the difference in growth between the drug-treated wells and control wells using GraphPad Prism Version 5.0d for Mac OS X (GraphPad Software, San Diego Calif., USA, www.graphpad.com). For time dose studies, bacterial growth in the presence of compound was monitored by the O.D. 600 nm. […] The values were plotted against time using GraphPad Prism Version 5.0d for Mac OS X (GraphPad Software, San Diego Calif., USA, www.graphpad.com).

In the next data set the test system is M. tuberculosis. Description: Benzimidazoles activity tested in animals (animal models of infection, Table A). The format is in vivo, mouse. The conditions noted are these: Table A. As for the experimental part:
as §1
Compound efficacy was assessed in two murine models of infection based on the short term model described previously (Lenaerts et al., Antimicrob. Agents Chemother. 2003; 47:783-785). All aerosol infections were performed using a Middlebrook aerosol generation devise (Glas-Col, Terre Haute, Ind.).

Data set [3] has as its system M. tuberculosis H37Rv. The conditions noted are these: previously reported SAR study; cited from earlier work.
The test system of data set [4] is M. tuberculosis clinical isolates. The conditions noted are these: previously reported; cited from earlier work.
The nature of data set [5]: Oxidative metabolic lability in mouse liver microsomes. Particulars: for Liver Microsome Lability Mouse: 5 μM, 1 mg/mL microsomal protein, 20 min. Background: Microsomes from liver hold many membrane-bound enzymes, among them those of drug oxidation.
Description: as §3, §4, §5
A short description of data set [6]: Plasma stability in mouse plasma. Particulars: percent remaining.
Description: (§6) Plasma was spiked with the compound in order to obtain a final drug concentration of 100 ng/mL (expressed as non-salified compound). The spiked plasma (dedicated to C1h and C4h) was then incubated at 37° C. for 1 h and 4 h. Plasma samples were analyzed by LC-MS/MS following protein precipitation. The limit of quantification for compounds was 10 ng/mL.
(§7) 10 μL of the sample was injected to Luna Phenomenex C8 (50 mm×2.0 mm, 3 μm). Solvent A: ammonium acetate (0.15 g)/formic acid (2 mL)/HPLC water up to 1000 mL. Solvent B: ammonium acetate (0.15 g)/formic acid (2 mL)/Methanol (200 mL)/Acetonitrile up to 1000 mL, flow rate of 0.3 mL/min, t=0-6 min. gradient of 10-90% of B. Retention time for SB-P17G-C2 was 1.85 min and for SB-P17G-A20 was 3.3 min. MS/MS condition used for detection: Finnigan TSQ Quantum disco instrument, Excalibur version 2.0 acquisition system, ESI positive ion ionization mode. The mean percent of difference between C1h or C4h and C0 concentrations was calculated. M % D (%)=100×[(C1h or C4h)−C0]/C0
(§8) The compounds were considered as stable if the mean percent of difference between C4h and C0 concentrations was less than 20%.
The test system of data set [7] is M. tuberculosis clinical isolates. Description: microbe, parasite or virus in culture. The format is cell-based, Mycobacterium tuberculosis. The conditions noted are these: for MIC: Mycobacterium tuberculosis, read-out: minimal inhibitory concentrations.
Another data set relates to M. tuberculosis NHN20. Description: microbe, parasite or virus in culture. Format: cell-based, Mycobacterium tuberculosis.
The test system of the next data set is M. tuberculosis W210. Description: microbe, parasite or virus in culture. Format: cell-based, Mycobacterium tuberculosis.
The target of the next data set is Mtb FtsZ (Mycobacterium tuberculosis, UniProt P9WN95). Description: FtsZ polymerization by transmission electron microscopy. The format is biochemical. The conditions noted are these: FtsZ 5 μM, GTP 25 μM, compound 40 μM and 80 μM.
Chain of Mtb FtsZ (P9WN95 whole entry, looked up): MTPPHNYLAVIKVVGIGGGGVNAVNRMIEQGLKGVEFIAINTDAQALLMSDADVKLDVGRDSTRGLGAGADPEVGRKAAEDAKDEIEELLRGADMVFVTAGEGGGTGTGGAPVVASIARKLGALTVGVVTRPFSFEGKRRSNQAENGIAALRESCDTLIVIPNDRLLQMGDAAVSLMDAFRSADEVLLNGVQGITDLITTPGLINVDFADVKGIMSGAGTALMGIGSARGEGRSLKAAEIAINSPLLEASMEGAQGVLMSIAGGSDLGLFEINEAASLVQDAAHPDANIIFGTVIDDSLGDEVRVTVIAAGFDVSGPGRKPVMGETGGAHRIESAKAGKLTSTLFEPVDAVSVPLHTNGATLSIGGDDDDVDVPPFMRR
For data set [8], the system named is M. tuberculosis H37Rv. The data set can be described thus: Growth inhibition / time dose curves (OD600 and CFU). The format is cell-based, Mycobacterium tuberculosis. Particulars: for reduction in number of viable bacteria: 1×MIC.
Data set [9] relates to M. tuberculosis H37Rv. Description: MIC / dose response by modified microplate Alamar Blue assay (MABA). Format: cell-based, Mycobacterium tuberculosis.
For another data set, the system named is M. tuberculosis TN587. Description: microbe, parasite or virus in culture. Format: cell-based, Mycobacterium tuberculosis.
In a further data set the test system is M. tuberculosis NHN382. The data set can be described thus: microbe, parasite or virus in culture. The format is cell-based, Mycobacterium tuberculosis.
A further data set has as its system M. tuberculosis Erdman. Format: in vivo. The conditions noted are these: for Δ Lungs (difference between means of Test and Control Groups) / Δ Spleen (difference between means of Test and Control Groups) / Log10CFU Lungs / Log10CFU Spleen: 50 mg/kg b.i.d. (Inh q.d.); for Log10CFU Lungs / Log10CFU Spleen: day 15.
For the next data set, the system named is Vero cells. Description: Cytotoxicity assay (resazurin, 72 h). Format: cell-based. The conditions noted are these: at 200 μg/mL. As to the method:
(§2) The cytotoxicity assay was performed as described previously^16. Briefly compounds were serially diluted in 96 well plates.
For orientation: Resazurin is reduced to fluorescent resorufin, in cell work by metabolically active cells.

Data set [10] can be described thus: Cytotoxicity assay (resazurin, 72 h). Format: cell-based. The conditions noted are these: African green monkey, Vero cells; 72 h. As to the method: as §2
The conditions of data set [11]: 100 ng/mL.
Description: as §6, §7, §8
[12] abbreviates: 50 mg/kg b.i.d. via either IP or PO.
[13] abbreviates: Mycobacterium tuberculosis, H37RV.

In brackets after ≈: the same amount, converted by molar mass. Entries after “also recorded” stand apart in the source; their conditions may differ. Like-named read-outs stand apart in the source and are kept apart here. Marks after values point to notes of the source that are not given here.

As for `CCCCOC(=O)Nc1cc2nc(C3CCCCC3)[nH]c2cc1N(C)C` [SB-P17G-C2], the “Liver Microsome Lability Human” value in data set [1] was 90%. Further, in [2], the Curve entry is recorded as “Sigmoid” and the MIC result is on record as “.063”. In the data set on M. tuberculosis, the “Efficacy Lung” value was “Yes (.3464)” and the “Efficacy Spleen” value is reported as “No”. Also, the MIC in the data set on M. tuberculosis H37Rv [3] is 0.06 µg/mL (≈ 0.167 µM). In addition, the “MIC against clinical isolates” value in data set [4] is 0.06 to 0.13 µg/mL. Further, the “Liver Microsome Lability Mouse” value in data set [5] turned out to be 96%.

Consider `CN(C)c1cc2nc(C3CCCCC3)[nH]c2cc1NC(=O)c1ccc(OC(F)(F)F)cc1` [SB-P17G-A20], for which the “Liver Microsome Lability Human” value in data set [1] was 39%. Further, the “metabolic stability (liver microsomes) in humans” value in data set [1] (percent remaining) turned out to be 61%. The “plasma stability (4 hours) in mice” value in data set [6] was 75.6%. In addition, in data set [7], the “MIC against different clinical strains” value was 0.16 µg/mL (≈ 0.358 µM). The MIC against M. tuberculosis NHN20 was 0.16 µg/mL (≈ 0.358 µM); in data set [2] it was “.31”; against M. tuberculosis W210, 0.16 µg/mL (≈ 0.358 µM); against M. tuberculosis H37Rv [9] it was 0.16 μg/m; against M. tuberculosis H37Rv [9] (H37Rv) it was 0.16 µg/mL (≈ 0.358 µM); against M. tuberculosis TN587, 0.16 µg/mL (≈ 0.358 µM). For the same compound, the MIC in the data set with M. tuberculosis NHN382 is 0.16 µg/mL (≈ 0.358 µM). Besides, the Curve entry in data set [2] is “Sigmoid”. The “Efficacy Lung” value in the data set on M. tuberculosis is “Yes”. For the same compound, the “Efficacy Spleen” value in the data set on M. tuberculosis is “Yes”. Also, the “effect on FtsZ polymerization and aggregation (TEM)” value on Mtb FtsZ is “fewer, shorter and thinner FtsZ polymers”. Besides, in the data set on M. tuberculosis H37Rv [8] (CFU plating), the “concentration that steadily reduced bacterial viability” value amounted to 0.08 µg/mL. Also, the “lowest concentration at which bacterial growth was reduced” value in the data set on M. tuberculosis H37Rv [8] (in some cases) was found to be 0.125 ×MIC. In addition, in data set [5], the “Liver Microsome Lability Mouse” value turned out to be 45%. Further, the “metabolic stability (liver microsomes) in mice” value in data set [5] (percent remaining) stood at 55%.

For the compound `CN(C)c1cc2[nH]c(C3CCCCC3)nc2cc1NC(=O)c1ccc(C(F)(F)F)cc1F` [SB-P17G-A42], the “Liver Microsome Lability Human” value in [1] is given as 12%. The MIC in data set [7] is 0.16 to 0.47 µg/mL (≈ 0.357 to 1.05 µM); in the data set on M. tuberculosis NHN20 (Mycobacterium tuberculosis), 0.16 µg/mL (≈ 0.357 µM); in data set [2] it was “.156”; with M. tuberculosis W210 (Mycobacterium tuberculosis) it was 0.31 µg/mL (≈ 0.691 µM); with M. tuberculosis H37Rv [9] (H37Rv), 0.18 ± 0.1 µg/mL (≈ 0.401 µM); against M. tuberculosis H37Rv [9] (setting [13]) it was 0.18 ± 0.1 µg/mL (≈ 0.401 µM). The MIC was determined as 0.24 ± 0.11 µg/mL (≈ 0.535 µM) in the data set with M. tuberculosis TN587 (Mycobacterium tuberculosis) and 0.16 µg/mL (≈ 0.357 µM) in the data set with M. tuberculosis NHN382 (Mycobacterium tuberculosis). The Curve entry in data set [2] is listed as “Sigmoid”. The “reduction of bacterial load in the lungs” value is listed as 5.6-5.8 Log10 CFU in the data set on M. tuberculosis Erdman (setting [12]); 5.8 Log10 CFU with M. tuberculosis Erdman (delivered IP, 50 mg/kg b.i.d.); 5.6 Log10 CFU in the data set with M. tuberculosis Erdman (delivered PO, 50 mg/kg b.i.d.). Also, the results for the “Δ Lungs (difference between means of Test and Control Groups)” value in the data set with M. tuberculosis Erdman (IP) and with M. tuberculosis Erdman (PO) were −5.78*** Log10 CFU and −5.65*** Log10 CFU, respectively. The “Δ Spleen (difference between means of Test and Control Groups)” value with M. tuberculosis Erdman (IP) is reported as −4.96*** Log10 CFU; with M. tuberculosis Erdman (PO), −3.89*** Log10 CFU. In addition, the “Log10CFU Lungs” value is on record as 0.91 ± 0.64 Log10 CFU in the data set with M. tuberculosis Erdman (IP) and 0.66 ± 0.43 Log10 CFU with M. tuberculosis Erdman (PO). The “Log10CFU Spleen” value in the data set with M. tuberculosis Erdman (IP) and in the data set on M. tuberculosis Erdman (PO) was 0 ± 0 Log10 CFU throughout. In addition, the “Efficacy Lung” value with M. tuberculosis was “Yes”. For the same compound, in the data set with M. tuberculosis, the “Efficacy Spleen” value was “Yes”. The “cytotoxicity in Vero cells” value with Vero cells was “not cytotoxic; also recorded: non-toxic”. Moreover, the “reduction in number of viable bacteria” value in the data set on M. tuberculosis H37Rv [8] (day 2) is given as 2.5 Log10 CFU; in the data set with M. tuberculosis H37Rv [8] (day 6), about 4 Log10 CFU. Also, the “Liver Microsome Lability Mouse” value in data set [5] is 13%.

As for `CN(C)c1cc2[nH]c(C3CCCCC3)nc2cc1NC(=O)c1ccc(OC(F)(F)F)cc1F` [SB-P17G-A38], the “Liver Microsome Lability Human” value in data set [1] came to 13%. Moreover, the MIC in data set [7] is 0.16 to 0.47 µg/mL (≈ 0.344 to 1.01 µM); in the data set on M. tuberculosis NHN20 (Mycobacterium tuberculosis), 0.24 ± 0.11 µg/mL (≈ 0.517 µM); in [2] it was “.156”; in the data set on M. tuberculosis W210 (Mycobacterium tuberculosis), 0.47 ± 0.22 µg/mL (≈ 1.01 µM); in the data set with M. tuberculosis H37Rv [9] (H37Rv), 0.31 ± 0.22 µg/mL (≈ 0.667 µM); in the data set on M. tuberculosis H37Rv [9] (setting [13]), 0.31 ± 0.22 µg/mL (≈ 0.667 µM). Further, the MIC against M. tuberculosis TN587 (Mycobacterium tuberculosis) and in the data set with M. tuberculosis NHN382 (Mycobacterium tuberculosis) was 0.31 µg/mL (≈ 0.667 µM) each time. Also, the Curve result in data set [2] is reported as “Sigmoid”. Also, the “reduction of bacterial load in the lungs” value is recorded as 6.1-6.3 Log10 CFU in the data set on M. tuberculosis Erdman (setting [12]); 6.3 Log10 CFU in the data set with M. tuberculosis Erdman (delivered IP, 50 mg/kg b.i.d.); 6.1 Log10 CFU in the data set with M. tuberculosis Erdman (delivered PO, 50 mg/kg b.i.d.). Also, the “Δ Lungs (difference between means of Test and Control Groups)” value in the data set with M. tuberculosis Erdman (IP) is recorded as −6.30*** Log10 CFU; in the data set on M. tuberculosis Erdman (PO), −6.10*** Log10 CFU. The figures for the “Δ Spleen (difference between means of Test and Control Groups)” value with M. tuberculosis Erdman (IP) and in the data set with M. tuberculosis Erdman (PO) were −4.96*** Log10 CFU and −3.89*** Log10 CFU, respectively. In addition, the “Log10CFU Lungs” value stood at 0.39 ± 0.63 Log10 CFU in the data set on M. tuberculosis Erdman (IP) and 0.22 ± 0.34 Log10 CFU in the data set with M. tuberculosis Erdman (PO). In addition, the “Log10CFU Spleen” value with M. tuberculosis Erdman (IP) and in the data set with M. tuberculosis Erdman (PO) was 0 ± 0 Log10 CFU throughout. The “Efficacy Lung” value in the data set with M. tuberculosis is “Yes”. Besides, the “Efficacy Spleen” value in the data set on M. tuberculosis is “Yes”. For the same compound, the “cytotoxicity in Vero cells” value with Vero cells is “not cytotoxic; also recorded: non-toxic”. This compound also showed an IC50 at 72 h in data set [10] of over 200 µg/mL. Besides, the results for the “reduction in number of viable bacteria” value in the data set on M. tuberculosis H37Rv [8] (day 2) and in the data set with M. tuberculosis H37Rv [8] (day 6) were 2.8 Log10 CFU and 2.9 Log10 CFU, respectively. Moreover, the “reduction in bacterial viability” value in the data set with M. tuberculosis H37Rv [8] (3-6×MIC) was 3.6-4.4 Log10 CFU. In data set [11], the “Plasma Stability (% hydrolysis) Mouse (4 h)” value was −11.5%. The “Liver Microsome Lability Mouse” value in [5] turned out to be 4%.
